Here are results for 3 compounds from PMC5597121, “The human bitter taste receptor T2R38 is broadly tuned for bacterial compounds” (PLoS ONE, 2017).

For one assay, the target named is T1, T2R38 AVI (Homo sapiens, UniProt P59533, A262V).
T1 construct: leader: first 45 amino acids of rat somatostatin receptor subtype 3 (SSTR3) (N); expressed in transfected cells; host or cells: Peakrapid cells (HEK293 derivative, ATCC CRL-2828) stably expressing Galpha16gustducin44, co-transfected with human RTP4
T1 sequence (P59533 1-333 A262V): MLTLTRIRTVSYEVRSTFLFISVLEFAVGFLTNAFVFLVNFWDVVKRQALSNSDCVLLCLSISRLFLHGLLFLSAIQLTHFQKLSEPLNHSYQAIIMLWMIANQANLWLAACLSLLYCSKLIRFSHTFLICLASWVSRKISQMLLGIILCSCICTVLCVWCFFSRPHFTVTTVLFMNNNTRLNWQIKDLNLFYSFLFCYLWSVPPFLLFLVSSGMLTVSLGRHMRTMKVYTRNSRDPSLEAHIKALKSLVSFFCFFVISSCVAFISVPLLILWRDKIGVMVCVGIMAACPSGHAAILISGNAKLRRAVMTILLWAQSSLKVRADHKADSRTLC
The experiment in a line: Single cell calcium imaging, control: cells transfected with nonfunctional allele (AVI) of T2R38. It counts as cell-based. The note with it: T2R38 AVI, individual values of experiments 1-5. As to the method:
(§1) The coding sequences of either the functional (PAV, GenBank accession number AY258597.1) and non-functional (AVI, GenBank accession number AF494231.1) were amplified from human genomic DNA by polymerase chain reaction.
(§2) The Peakrapid cell line expressing stably a chimeric Gα16gustducin44 G protein [21] was used. 40 000 cells were seeded in each well of a black/clear poly-D-lysine cellware pre-coated 96-well plate (Biocoat®, Becton-Dickinson, Erembodegem, Belgium) and transiently transfected with 50 ng of plasmid DNA containing the receptor sequence or not (empty vector) and with 50 ng of chaperone protein RTP4 per well. Forty hours after transfection, cells were incubated with the calcium-sensitive dye Fluo4 (Life Technologies, Oregon, USA) solubilized at 10 μg/ml in a buffer containing EMEM (150 mM NaCl, 5 mM KCl, 2 mM CaCl2, 1.2 mM MgCl2, 10 mM glucose), 10 mM HEPES, 0.01% (v/v) Pluronic F127, 0.1% (w/v) bovine serum albumin. After 1 h incubation at 37°C, cells were rinsed twice with the same buffer without Fluo4 and left in 50 μl buffer (prior ligand injection). Measurement were performed on a platform based on a motorized Axiobserver Z1 fluorescence microscope piloted by a Axiovision software (Zeiss, Jena, Germany) as described previously. For each selected well, images were taken 1 per second, during 30 seconds. 50 μl of the buffer containing the ligand twice concentrated was injected on the 2nd second of the time lapse record.
(§3) After time lapse record, the number of responding cells in each injected well was determined using ImageJ 1.34 (Rasband, W.S., ImageJ, National Institutes of Health, Bethesda, Maryland, USA, http://rsb.info.nih.gov/ij/1997-2004), and expressed as the percentage of the surface of a microscope field covered by activated cells with respect to the total surface of the field covered by confluent cells. Automated determination of the surface occupied by responding cells is easier to perform than a cell counting. The resulting percentage of positive surface provided a convenient estimation of the percentage of responding cells, as observed by comparing the percentage of positive surface and percentage of responsive cells determined by direct counting, in the same experiment. In agreement with the literature, the percentage of responding cells was proportional to the agonist concentration. During experiment in each plate, at least 2 wells were tested with phenylthiocarbamide (PTC) at 0.1 mM, which is one of the best characterized agonist of T2R38 in the literature. The activation of T2R38 by PTC allows normalization of the result of other tested molecules. The results were thus expressed as the percentage of PTC activation. In scaling calcium imaging assays using this latter receptor, concentration-responses curves were performed and data were fitted to a four parameter logistic equation: y=min+ (max− min)/1+10 ^(logEC50−x)nH . Min and max are the minimum and the maximum values of the percentage of cell-activated surface respectively, y is the percentage of cell-activated surface at the x concentration and nH is the Hill coefficient.

Assay [1] relates to mock transfected cells (empty vector). The experiment in a line: Single cell calcium imaging, control: mock transfected (empty vector) Peakrapid cells. The format is cell-based, human. As to the method:
as §2, §3

In another assay the target is T2, T2R38 (Homo sapiens, UniProt P59533, A49P/I296V).
T2 construct: leader: first 45 amino acids of rat somatostatin receptor subtype 3 (SSTR3) (N); expressed in transfected cells; host or cells: Peakrapid cells (HEK293 derivative, ATCC CRL-2828) stably expressing Galpha16gustducin44, co-transfected with human RTP4
T2 sequence (P59533 1-333 A49P/I296V): T1 sequence (P59533 1-333 A262V) with A49P, V262A, I296V
Nature of the assay: Single cell calcium imaging, Peakrapid cells (Gα16gustducin44) transiently transfected with T2R38. The conditions noted are these: for response of T2R38 PAV transfected cells (S7_fig raw data): individual values of experiments 1-5; for pEC50: concentration-response curve, read-out: EC50; for logEC50: given in the concentration-response curve; for Emax (% of positive control): percentage of the response elicited by 0.1 mM PTC. The format is cell-based.
Description: as §1
These coding sequences were cloned in a pEFIB backbone vector in translational fusion with the coding sequence of a leader sequence corresponding to the 45 first amino acids of the rat somatostatin receptor subtype 3 [20]. The constructs were verified by sequencing. The coding sequence of RTP4 (Genbank accession number AY562238.1) was amplified from human spleen cDNA and cloned a pCI backbone vector.
The Gα16gustducin44 sequence was generated by swapping the last 132 nucleotides of the G α16 with the corresponding terminal sequence of the Gα-gustducin [21] and was cloned in a pIRES-Puro plasmid. This vector was transfected in the Peakrapid cell line (ATCC reference: CRL-2828™; purchased from LGC Standards SARL, Molsheim, FRANCE), HEK293 cell line derivative, cultured in EMEM culture medium (reference BE12-136F; Lonza, Vervier, BELGIUM) supplemented with 10% of foetal bovine serum (Sigma-Aldrich, Bornem, Belgium) and 1 μg/ml of Puromycin to allow the selection of recombinant cell populations. Cell clones expressing the Gα16gustducin44 were selected and the clone presenting the best functional response of T2R38 to phenylthicarbamide was used for the study (see below).
as §2
as §3, with “In scaling calcium imaging assays using this latter receptor, concentration-responses curves were performed and data were fitted to a four parameter logistic equation: y=min+ (max− min)/1+10 ^(logEC50−x)nH . Min and max are the minimum and the maximum values of the percentage of cell-activated surface respectively, y is the percentage of cell-activated surface at the x concentration and nH is the Hill coefficient.” left out

Where [2] appears, read: 2 butanone 0.0003, log10[ ] -3.52288.
Where [3] appears, read: 2 butanone 0.005, log10[ ] -2.30.

Substitutions are numbered along the chain they refer to. pEC50: −log10 of the molar value. Where “and” joins values, the source holds several entries; their conditions need not be identical. Identical values can stand only once.

Broadly, the pEC50 is −log10 of the EC50, conventionally taken in molar units. For the compound `CS` [methylmercaptan], the “response of T2R38 AVI transfected cells (S7_fig raw data)” value (“response of T2R38 AVI transfected cells” below) at T2R38 AVI (listed as méthylmercaptan) was 0.549% and 0.185% and 0.235% and 0.0265% and 0.511% and 0.151% and 0.286% and 0.362% and 1.77% and 0.619% and 1.26% and 0.598% and 0.172% and 0.165%. In addition, in assay [1] (méthylmercaptan 0.0075, log10[ ] -2.12494), the “percentage of surface covered by activated cells” value (shortened to “percentage of surface covered”) is 0.35% and 0.33% and 0.26% and 0.19% and 1.74% and 0.81% and 0.76%. Further, the “percentage of surface covered” value in assay [1] (méthylmercaptan 0.01, log10[ ] -2) is 0.36% and 0.09% and 0.12% and 0.53% and 2.03% and 0.10% and 0.15% and 0.34%. On T2R38, the “agonist activity on T2R38 (in words)” value is recorded as “able to specifically trigger this receptor”, the pEC50 is 2.10, the logEC50 was -2.07 and the “Emax (% of positive control)” value is on record as 31 % of positive control. For the same compound, the “response of T2R38 PAV transfected cells (S7_fig raw data)” value (“response of T2R38 PAV transfected cells” for short) on T2R38 (listed as méthylmercaptan) is 3.25% and 3.44% and 8% and 6% and 6.36% and 5% and 1.09% and 2.8% and 3.57% and 1.72% and 3% and 1.56% and 5.64% and 4.55%. In addition, the “percentage of surface covered” value on T2R38 (méthylmercaptan 0.000630957, log10[ ] -3.2) was 0.11% and 0.07% and 0.29% and 0.31% and 0.27% and 0.54% and 0.96% and 0.62%. In addition, on T2R38 (méthylmercaptan 0.00439285, log10[ ] -2.35725), the “percentage of surface covered” value was 0.81% and 0.87% and 0.46% and 0.37% and 1.33% and 0.26% and 1.05% and 0.97%.
Take `CC(C)=O` [acetone]: at T2R38 AVI, the “response of T2R38 AVI transfected cells” value is 0.559% and 1.33% and 0.331% and 0.695% and 0.444% and 0.829%. The “percentage of surface covered” value in assay [1] (acetone 0.0035, log10[ ] -2.45) was 1.26% and 0.40% and 0.58%; in assay [1] (acetone 0.011, log10[ ] -1.95), 0.32% and 0.08% and 0.49% and 0.06%; in assay [1] (acetone 0.035, log10[ ] -1.45), 0.26% and 0.42% and 1.02% and 0.10%; in assay [1] (acetone 0.066, log10[ ] -1.18), 1.43% and 0.30% and 0.70%; in assay [1] (acetone 0.114, log10[ ] -0.94), 0.76% and 0.05% and 0.38% and 0.11%; in assay [1] (acetone 0.162, log10[ ] -0.79) it was 1.04% and 0.22% and 0.73% and 0.01%. Besides, the “percentage of surface covered” value was 0.0454% and 0.0283% and 0.02% in assay [1] (acetone 0.185, log10[ ] -0.73); 0.29% and 0.16% and 0.35% on T2R38 (acetone 0.0035, log10[ ] -2.45); 1.02% and 0.77% and 0.78% and 0.46% and 1.17% and 0.98% at T2R38 (acetone 0.011, log10[ ] -1.95); 0.69% and 0.81% and 7.95% and 5.59% and 2.13% and 2.80% at T2R38 (acetone 0.035, log10[ ] -1.45); 2.66% and 2.94% and 6.89% and 9.70% at T2R38 (acetone 0.066, log10[ ] -1.18). Moreover, the “agonist activity on T2R38 (in words)” value on T2R38 was “able to specifically trigger this receptor”. Further, the “response of T2R38 PAV transfected cells” value on T2R38 is 16% and 18% and 21% and 22% and 7% and 15%. At T2R38, the negative-log EC50 (pEC50) is 1.22. Also, the logEC50 at T2R38 is recorded as -1.22. Moreover, the “Emax (% of positive control)” value on T2R38 is given as 67 % of positive control.
As to `CCC(C)=O` [2-butanone], at T2R38 AVI, the “response of T2R38 AVI transfected cells” value is 0.268% and 0.426% and 0.699% and 0.605% and 0.163% and 0.0184% and 0.394% and 1%. Also, the “percentage of surface covered” value was 0.39% and 0.10% and 0.28% and 0.31% and 0.23% and 0.40% in assay [1] (setting [2]); 0.15% and 0.21% and 0.35% and 0.12% and 1.02% and 0.24% in assay [1] (2 butanone 0.001, log10[ ] -3); 0.20% and 0.26% and 0.34% and 0.21% and 0.24% and 0.71% in assay [1] (setting [3]); 0.00% and 0.0352% and 0.31% and 0.18% and 0.33% and 0.26% in assay [1] (2 butanone 0.015, log10[ ] -1.82); 0.0659% and 0.02% and 0.27% and 0.40% and 0.08% and 0.25% in assay [1] (2 butanone 0.03, log10[ ] -1.52); 0.25% and 0.75% and 3.48% and 1.23% and 0.22% and 1.04% in assay [1] (2 butanone 0.08, log10[ ] -1.09691). The “percentage of surface covered” value on T2R38 (setting [2]) is 0.29% and 0.34% and 0.44% and 0.21% and 0.00% and 0.15%; on T2R38 (2 butanone 0.001, log10[ ] -3) it was 0.13% and 1.98% and 3.16% and 3.22% and 0.15% and 0.22%; at T2R38 (setting [3]), 0.54% and 0.83% and 7.88% and 6.11% and 2.08% and 3.12%. In addition, the “agonist activity on T2R38 (in words)” value at T2R38 is recorded as “able to specifically trigger this receptor”. Besides, the “response of T2R38 PAV transfected cells” value at T2R38 was 17% and 13% and 2.7% and 11% and 15% and 12% and 7% and 6%. On T2R38, the negative logarithm of the EC50 (pEC50) was 1.96. The logEC50 on T2R38 was -1.94. Further, the “Emax (% of positive control)” value on T2R38 was 48 % of positive control.
